The results in this text go back to patent publication US8617567B2, “Fungus polyose composition with immunity enhancing effect and application thereof” (priority 2009, dated 2013).

In the data set the test system is S180 cancer bearing mice. The note with it: S180 NIH mice, 100 mg/kg intraperitoneal, 2 times per week, 11 days. On the procedure:
85 healthy NIH mice, unisexual, were selected. […] The other 55 mice were used for solid tumor test.
At the beginning of the experiment, 20 mice with ascites were selected and sacrificed by pulling the cervical vertebrae on a sterilized bench, then the abdomens were sterilized with iodine tinctur, 75% alcohol q-tips in turn. The ascites were collected with 3 ml asepsis disposable syringe and put in asepsis dry conical flask and stored on the ice. […] It should be noted that the ascites collected were a milk-yellow or milk-white fluid, and the ascites with a larger quantity of RBC should be discarded. After the ascites were diluted 100 times, the cell density was measured to about 2×10^7/ml by the method of Trypan Blue count. The ascites were diluted with saline. The diluted ascites were subcutaneously injected, at a dosage of 0.2 ml, into the right armpit of each mouse.
After all qualified 55 mice were injected, they were randomly divided into 5 groups: the blank control group, the compound fungus polyose low-, medium-, and high-dosage groups, and the positive cyclophosphamide control group, respectively. 11 mice were in each group. […] After 11 days of administration, all mice were sacrificed and their body weights, tumor weights, thymic weights, and spleen weights were measured. After the end of the experiment, statistical treatment of data was carried out to compare the difference among the groups. Thymus (spleen) index=Thymus (spleen) weight/Body weight×10 g Body Weight Changes=Body weight after administration−Body weight before administration Inhibition ratio %=(Tumor weight in blank group−Tumor weight in treatment group)/Tumor weight in blank group×100% 4.2 Mice Immune Function Test 4.2.1 Mice Carbon Clearance Test

In the case of `O=P1(N(CCCl)CCCl)NCCCO1` (centres unmarked) [Cyclophosphamide], the “Condition of thymus and spleen” value is “obvious atrophy”; the Spleen index amounted to 0.0322 ± 0.0190 g/10 g; the Thymus index amounted to 0.0117 ± 0.0041 g/10 g; the Tumor weight came out at 0.0502 ± 0.0253 g. For the same compound, the Anti-tumor ratio (vs blank control) was found to be 95.9%.
